Test results: PubChem BioAssay (NCI)
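Tested at 5 concentrations; 48 h exposure; 96-well plates; endpoints linearly interpolated, else capped at highest concentration. GI50 marks 50% less growth. TGI is the concentration that stops growth completely.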

Columns and labels:
Test in all cases: growth of human tumour cells (NCI), 48 h
[1] = system: NCI-H23 lung
[2] = system: NCI-H460 lung
[3] = system: NCI-H522 lung
[4] = system: NCI/ADR-RES ovarian
[5] = system: OVCAR-3 ovarian
[6] = system: OVCAR-4 ovarian
[7] = system: OVCAR-5 ovarian
[8] = system: OVCAR-8 ovarian
[9] = system: PC-3 prostate
[10] = system: RPMI-8226 leukemia
[11] = system: RXF 393 renal
[12] = system: SF-268 CNS
[13] = system: SF-295 CNS
[14] = system: SK-MEL-2 melanoma
[15] = system: SK-MEL-28 melanoma
[16] = system: SK-MEL-5 melanoma
[17] = system: SK-OV-3 ovarian
[18] = system: SN12C renal
[19] = system: SNB-19 CNS
[20] = system: SNB-75 CNS
[21] = system: SR leukemia
[22] = system: SW-620 colon
[23] = system: T-47D breast
[24] = system: TK-10 renal
[25] = system: U251 CNS
[26] = system: UACC-257 melanoma
[27] = system: UACC-62 melanoma
[28] = system: UO-31 renal

For `Cn1cncc1-c1c(F)cncc1NC(=O)c1c(N)nn2cc(F)cnc12`, which GI50 [1] is on record?
The GI50 was 0.093 µM.

What about the TGI [1] of the same compound?
The TGI was 1.34 µM.

What about the GI50 [2] of the same compound?
The GI50 was 1.27 µM.

And the TGI [2]?
The TGI was over 100 µM.

And the GI50 [3]?
Its GI50 is 3.46 µM.

And the TGI [3]?
Its TGI is 19.8 µM.

What about the GI50 [4] of the same compound?
The GI50 was 1.45 µM.

What about the TGI [4] of the same compound?
The TGI was over 100 µM.

And the GI50 [5]?
The GI50 was 0.407 µM.

What about the TGI [5] of the same compound?
Its TGI is 2.29 µM.

And the GI50 [6]?
Its GI50 is 1.27 µM.

And the TGI [6]?
The TGI was 14.4 µM.

And the GI50 [7]?
The GI50 was 13 µM.

And the TGI [7]?
The TGI was over 100 µM.

What about the GI50 [8] of the same compound?
Its GI50 is 5.83 µM.

And the TGI [8]?
The TGI was over 100 µM.

What about the GI50 [9] of the same compound?
The GI50 was 3.41 µM.

And the TGI [9]?
Its TGI is over 100 µM.

What about the GI50 [10] of the same compound?
Its GI50 is 1.53 µM.

And the TGI [10]?
The TGI was 9.4 µM.

And the GI50 [11]?
The GI50 was 0.278 µM.

What about the TGI [11] of the same compound?
Its TGI is 16.8 µM.

And the GI50 [12]?
The GI50 was 4.04 µM.

And the TGI [12]?
The TGI was 46.2 µM.

What about the GI50 [13] of the same compound?
Its GI50 is 0.625 µM.

What about the TGI [13] of the same compound?
Its TGI is 6.61 µM.

And the GI50 [14]?
The GI50 was 0.0751 µM.

And the TGI [14]?
Its TGI is 0.397 µM.

What about the GI50 [15] of the same compound?
Its GI50 is 6.52 µM.

What about the TGI [15] of the same compound?
The TGI was 86.8 µM.

And the GI50 [16]?
Its GI50 is 1.23 µM.

And the TGI [16]?
The TGI was 2.48 µM.

And the GI50 [17]?
Its GI50 is 0.743 µM.

What about the TGI [17] of the same compound?
The TGI was 8.92 µM.

And the GI50 [18]?
The GI50 was 3.98 µM.

And the TGI [18]?
Its TGI is 37.6 µM.

And the GI50 [19]?
The GI50 was 5.2 µM.

What about the TGI [19] of the same compound?
Its TGI is over 100 µM.

What about the GI50 [20] of the same compound?
Its GI50 is 6.5 µM.

And the TGI [20]?
Its TGI is 48.6 µM.

And the GI50 [21]?
The GI50 was 0.206 µM.

What about the TGI [21] of the same compound?
Its TGI is 2.54 µM.

What about the GI50 [22] of the same compound?
Its GI50 is 4.12 µM.

What about the TGI [22] of the same compound?
Its TGI is over 100 µM.

What about the GI50 [23] of the same compound?
Its GI50 is 4.32 µM.

What about the TGI [23] of the same compound?
The TGI was over 100 µM.

What about the GI50 [24] of the same compound?
The GI50 was 4.54 µM.

And the TGI [24]?
Its TGI is 83.7 µM.

What about the GI50 [25] of the same compound?
Its GI50 is 4.48 µM.

What about the TGI [25] of the same compound?
Its TGI is over 100 µM.

What about the GI50 [26] of the same compound?
Its GI50 is 20.9 µM.

What about the TGI [26] of the same compound?
The TGI was over 100 µM.

What about the GI50 [27] of the same compound?
The GI50 was 2.22 µM.

What about the TGI [27] of the same compound?
The TGI was 6.9 µM.

What about the GI50 [28] of the same compound?
Its GI50 is 0.303 µM.

And the TGI [28]?
The TGI was 60.5 µM.
